Several values for one entry are separate records, joined by “and”; a condition that tells them apart may be missing. Equal values may be shown once. Activity calls are given as the source filed them.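 How the source made its calls: active means caspase luminescence falls with dose and the half-maximal concentration AC50 from the fitted curve is at or below a set limit; inconclusive means flat fit at 30 to 70% signal loss, or invalid fit; inactive means AC50 above the limit, or signal rises instead.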

This test concerns INS-1E cytokine-induced caspase-3/7, Caspase-Glo luminescence, 48 h. In words: inhibitors of cytokine-induced caspase-3/7 activity, dose response, orthogonal assay for beta-cell apoptosis protection project, INS-1E rat cells, luminescence (AID 463206).
One may read the AC50 as the midpoint of the concentration-response curve, whichever way the signal moves. As for `O=C(c1ccco1)N1N=C(c2ccc(Br)cc2)CC1c1ccco1` (stereo not drawn), the AC50 was > 26 µM (inactive).

Regarding `Cc1ccc(-c2cn(-c3ccc(OC(F)F)cc3)c3[n+]2CCCCC3)cc1`, the AC50 was > 26 µM (inactive).

As to `CCOc1cccc(/C=N/NC(=O)c2ccc3c(c2)OCCO3)c1O`, the AC50 was > 26 µM (inactive).

Consider `Cc1cc(N/N=C/c2cccc(Cl)c2)nc(-n2nc(C)cc2C)n1`, for which the AC50 was > 26 µM (inactive).

As to `O=C(N/N=C/c1ccc(O)cc1O)/C(=C/c1ccccc1)CCO`, the AC50 is > 26 µM (inactive).

On to `c1ccc(N2CCN(CC3CCCCC3)CC2)cc1`, for which the AC50 is > 26 µM (inactive).

As for `CC(=O)Oc1c(Cl)cc(N(C(C)=O)S(=O)(=O)c2ccccc2)c2ccccc12`, the AC50 was > 26 µM (inactive).

As to `COc1cccc(CN(C)C(=O)c2cc(COc3ccc4ncccc4c3)on2)c1`, the AC50 is > 26 µM (inactive).

Take `Cc1sc2ncnc(NCC(O)c3ccc([N+](=O)[O-])cc3)c2c1C` (stereo not drawn): the AC50 was > 26 µM (inactive).

Take `CC(C)(C)OC(=O)NCc1ccc(NC(=O)c2nc[nH]c2C(=O)NCCNC(=O)c2[nH]cnc2C(=O)Nc2ccc(CNC(=O)OC(C)(C)C)cc2)cc1`: the AC50 is > 26 µM (inactive).

Take `Cc1ccc(C)c(S(=O)(=O)N2CCN(Cc3ccc(O)c4ncccc34)CC2)c1`: the AC50 was > 26 µM (inactive).

For `Cc1c(Cl)c([N+](=O)[O-])nn1Cc1ccc(C(=O)N/N=C\c2cc(Cl)ccc2O)o1`, the AC50 was > 26 µM (inactive).

As for `Cc1nn(-c2nc3ccccc3[nH]2)c(=O)c2ccccc12`, the AC50 is > 26 µM (inactive).

As to `O=C(/C(=C/c1cccc(Cl)c1)c1nc2ccccc2[nH]1)c1ccccc1`, the AC50 is > 26 µM (inactive).

Consider `O=C(Nc1cccnc1)C1(F)C(F)(F)C(F)(F)C(F)(F)C(F)(F)C1(F)F`, for which the AC50 was > 26 µM (inactive).

Take `CC(C)CCCCCCNC(=S)Nc1ccc(S(=O)(=O)N2CCOCC2)cc1`: the AC50 was > 26 µM (inactive).

As for `CC(C)C[C@H](NC(=O)c1nc[nH]c1C(=O)N[C@@H](CC(C)C)C(=O)OC(C)(C)C)C(=O)OCc1ccccc1`, the AC50 is > 26 µM (inactive).

As for `NC(=S)N/N=C/c1c(O)c(Br)cc2oc3c(c12)CCCC3`, the AC50 was > 26 µM (inactive).

Turning to `Cc1cc(/C=N/n2cnnc2)c(C)n1-c1ccc(OCc2ccc(Cl)cc2Cl)cc1`, the AC50 was > 26 µM (inactive).

`COc1cc(NC(C)CCCN)c2ncccc2c1` (stereo not drawn): the AC50 was > 26 µM (inactive).

With `COc1cnc(-c2ccccn2)nc1N(C)C`, the AC50 was > 26 µM (inactive).

As to `CC(=O)N(Cc1ccc(F)cc1)C1=C(NCCc2ccccc2)C(=O)c2ccccc2C1=O`, the AC50 is > 26 µM (inactive).

Consider `COc1cccc(-c2nc(-c3ccc(NC(=O)c4cccnc4)cc3)no2)c1`, for which the AC50 is > 26 µM (inactive).

For `CCCCCCCCCCOC(=O)Cn1c(COc2ccc(OC)cc2)[n+](C)c2ccccc21`, the AC50 was > 26 µM (inactive).

With `CN(C)C(=O)c1ccc(NC(=O)c2cccnc2)cc1`, the AC50 was > 26 µM (inactive).

Take `CCCCCCCCn1ccc(=N)cc1`: the AC50 was > 26 µM (inactive).

For the molecule `Cc1c(C)c2cccnc2c2ncccc12`, the AC50 was > 26 µM (inactive).

In the case of `Cc1oc2c(c1C(=O)N1CCC(C)CC1)C(=O)c1ccccc1C2=O`, the AC50 is > 26 µM (inactive).

Regarding `O=C(CN(Cc1ccco1)Cc1ccco1)Nc1cc(S(=O)(=O)N2CCCCC2)ccc1Cl`, the AC50 was > 26 µM (inactive).

As for `O=C(Nc1ccc(F)cc1F)N1CCCN(CCOc2ccccc2)CC1`, the AC50 was > 26 µM (inactive).

As to `CC(C)C[C@H]1CN=C(Nc2ccccc2)N1CCc1ccc(F)cc1`, the AC50 is > 12 µM (inactive).

Turning to `COc1ccc2[nH]c(C(=O)N/N=C/c3ccc(O)cc3O)cc2c1`, the AC50 was > 26 µM (inactive).

Turning to `Cc1ccc(NC2=CC(=O)C(=O)c3ccccc32)c(C)c1`, the AC50 was > 26 µM (inactive).

As for `O=C(NC1=C(Nc2ccc(F)cc2)C(=O)c2ccccc2C1=O)c1ccc(Cl)cc1`, the AC50 is > 26 µM (inactive).

As for `Cc1cc(C2CCCCC2)n(O)c(=O)c1`, the AC50 was > 26 µM (inactive).

Turning to `O=C(NCCCn1ccnc1)c1ccc(-c2ccccc2)cc1`, the AC50 is > 26 µM (inactive).

In the case of `COc1cc(CNC(C)c2ccccc2)cc(Br)c1OCc1ccc(F)cc1` (stereo not drawn), the AC50 is > 26 µM (inactive).

On to `C=C(C=O)C[C@@H]1C[C@H](O)C2OC3C[C@]4(C)OC5/C=C\CC6OC7C(CC=CCC6OC5CCCC4OC3CC2O1)OC1CC2OC3CC(=O)OC3C[C@@H](C)C[C@@]2(C)OC1C[C@@H]7C` (stereo partly drawn), for which the AC50 was > 26 µM (inactive).

Turning to `CCCOc1nc2c(c(=O)n(C)c(=O)n2C)n1Cc1cccc2ccccc12`, the AC50 is > 26 µM (inactive).

Turning to `CCC(C)Nc1nc(-c2ccccn2)nc2ccccc12` (stereo not drawn), the AC50 was > 26 µM (inactive).

Take `CC(=O)c1c(C)n(CC(=O)NCc2ccco2)c2ccccc12`: the AC50 was > 26 µM (inactive).

As for `CCCCCCCCCCOC(=O)Cn1c(COc2ccccc2C)[n+](C)c2ccccc21`, the AC50 is > 26 µM (inactive).

In the case of `Cc1cc(/C=N/n2cnnc2)c(C)n1-c1ccc(OCc2ccc(Cl)cc2)cc1`, the AC50 was > 26 µM (inactive).

For `O=[N+]([O-])c1ccc(O)c(/C=N/Nc2ccccn2)c1`, the AC50 was > 26 µM (inactive).

Take `CCCCC(=O)N1C/C=C\C(c2ccc(OC)cc2)N(Cc2ccc(F)cc2)C(=O)[C@H]1Cc1ccccc1` (stereo partly drawn): the AC50 is > 26 µM (inactive).

Turning to `CCCCCCCCn1c2c(c(=N)c3c1CCC3)CCCC2`, the AC50 is > 26 µM (inactive).

Consider `CC1=NNC(=O)/C1=C\c1cn(-c2ccccc2)nc1-c1ccc(Cl)cc1`, for which the AC50 was > 26 µM (inactive).

For `Cc1cc([N+](=O)[O-])nn1Cc1ccc(C(=O)N/N=C/c2ccc(O)cc2O)cc1`, the AC50 is > 26 µM (inactive).

As to `Cc1cc(-c2ccccc2)n(-c2cc(N/N=C/c3ccccc3O)ncn2)n1`, the AC50 was > 26 µM (inactive).

Regarding `OC(c1cc(-c2ccc(C(F)(F)F)cc2)nc(C(F)(F)F)c1)C1CCCCN1` (stereo not drawn), the AC50 was > 26 µM (inactive).

For `COCCCNC(=S)N/N=C/c1cccc(OC)c1O`, the AC50 is > 26 µM (inactive).

On to `N=c1c2c(n(Cc3ccc(Br)cc3)c3c1CCC3)CCCC2`, for which the AC50 was > 26 µM (inactive).

For the molecule `CN1c2ccccc2N(C)C1(C)c1ccccc1`, the AC50 was > 26 µM (inactive).

Consider `Cc1ccc2c(c1)c(/C=C/c1cc[n+](C)cc1)c(C)n2C`, for which the AC50 is > 26 µM (inactive).

For `Nc1c(C(=O)Nc2ccc(S(=O)(=O)N3CCCC3)cc2)sc2nc3ccc(OC(F)(F)F)cc3cc12`, the AC50 is > 26 µM (inactive).

In the case of `COc1ccc(-c2cn(Cc3ccc(C(=O)c4ccccc4)cc3)nn2)cc1`, the AC50 was > 26 µM (inactive).

With `[O-][N+]1=c2ccc(Nc3ccccc3)cc2=NC12CCCCC2`, the AC50 was > 26 µM (inactive).

On to `CCS(=O)(=O)c1ccc(OC)c(N=Nc2ccc(O)c3ncccc23)c1`, for which the AC50 was > 26 µM (inactive).

As to `CCCCCCOc1ccc(CN2CCN(C)CC2)cc1`, the AC50 is > 26 µM (inactive).

As to `COc1ccc(C(CCN2CCCCC2)c2c(OC)cc(OC)c3c(-c4ccccc4)cc(=O)oc23)cc1` (stereo not drawn), the concentration at half-maximal activity (AC50) was 16.6 µM.

As for `Cc1[nH]n(-c2ccccc2)c(=O)c1/C=N/Nc1nncc(-c2ccccc2)n1`, the AC50 is > 26 µM (inactive).

Take `CCOc1ccccc1NC(=O)C(=O)N/N=C/c1cc(Br)ccc1O`: the AC50 is > 26 µM (inactive).

`CC(C)OCCCNc1ncnc2c1[nH]c1ccccc12`: the AC50 was > 26 µM (inactive).

As to `Cc1cccc(NC(=O)c2nc(S(=O)(=O)Cc3ccccc3)ncc2Cl)c1`, the AC50 is > 26 µM (inactive).

On to `COc1cc(OC)c2cc(C(=O)N/N=C/c3ccccc3O)[nH]c2c1`, for which the AC50 is > 26 µM (inactive).

On to `Cc1ccccc1-c1cc(C(=O)Nc2sc(C)c(C)c2C(N)=O)c2ccccc2n1`, for which the AC50 is > 26 µM (inactive).

Consider `Cc1cccc(Oc2cc(NC(=O)c3ccccc3)cc([N+](=O)[O-])c2)c1`, for which the AC50 is > 26 µM (inactive).

Turning to `C[C@H]1CCC/C=C/C2C[C@H](O)CC2[C@H](O)/C=C/C(=O)O1` (stereo partly drawn), the AC50 was > 26 µM (inactive).

With `CCN1CCN(Cc2ccc(NC(=O)c3ccc(C)c(NC(=O)C(=O)c4c[nH]c5ccccc45)c3)cc2C(F)(F)F)CC1`, the AC50 was > 12 µM (inactive) and > 26 µM (inactive).

With `COc1ccc(Nc2nc(N3CCCCC3)c3ccccc3n2)cc1`, the AC50 is 21.1 µM.

For `COc1ccc(Cn2c(SCc3ccc(C)cc3)nc3cc(OC)c(OC)cc3c2=N)cc1Cl`, the AC50 is > 26 µM (inactive).

For the molecule `CCN(CC)S(=O)(=O)c1cccc(NC(=O)c2cc(-c3cccs3)nn2-c2ccccc2)c1`, the AC50 was > 26 µM (inactive).

Consider `COc1ccc(C2/C=C\CN(C(=O)c3ccc(C)cc3)[C@H](Cc3ccccc3)C(=O)N2Cc2ccc(F)cc2)cc1` (stereo partly drawn), for which the AC50 is > 26 µM (inactive).

In the case of `O=C(/C=C/c1ccccc1)NC(=S)NNC(=O)c1cnccn1`, the AC50 was > 26 µM (inactive).

Turning to `C/C(=N\N1C(=O)c2ccccc2NC1c1ccco1)c1ccccc1O` (stereo not drawn), the AC50 is > 26 µM (inactive).

In the case of `CC1=CC2/C=C(\C)CCC(O)C(O)/C=C/C(=O)C23C(=O)NC(CC(C)C)C3C1C` (stereo not drawn), the AC50 was > 26 µM (inactive).

As for `O=C(Nc1cccnc1)c1ccc([N+](=O)[O-])s1`, the AC50 was > 26 µM (inactive).

Consider `O=C(C1=C[C@@H](c2ccc(C(F)(F)F)cc2)C[C@@H](OCCCCO)O1)N1CCN(Cc2ccccc2)CC1`, for which the AC50 is > 26 µM (inactive).

As to `O=C(/C=C/c1cccc([N+](=O)[O-])c1)c1ccc([N+](=O)[O-])o1`, the AC50 is > 26 µM (inactive).

Regarding `O=C(/C=C/c1cccc(Cl)c1)c1ccc([N+](=O)[O-])o1`, the AC50 was > 26 µM (inactive).

Consider `O=C(NCc1cccnc1)c1cc(-c2ccco2)on1`, for which the AC50 is > 26 µM (inactive).

`Cc1cc2nc(-c3ccc(NC(=O)c4cccnc4)cc3)oc2cc1C`: the AC50 was > 26 µM (inactive).

For the molecule `O=C(COc1ccc2ccccc2c1)N1CCN(Cc2c[nH]c3ccccc23)CC1`, the AC50 was > 26 µM (inactive).

(Values after PubChem BioAssay AID463206 (Broad Institute, 2010).)
